Data taken from patent publication US6589976B1, “Utilizing spirocyclic phenyl keto-enols as pesticides and herbicides” (Bayer Aktiengesellschaft, priority 1997, dated 2003).

What was measured:
[1] = system: greenhouse spider mite (Tetranychus urticae); assay: Tetranychus-Test (OP-resistant/dipped Treatment); assay type: in vivo; conditions: active compound concentration of 0.01%, after 7 days
Method: Tetranychus-Test (OP-resistant/dipped Treatment)
(§1) Solvent: 3 parts by weight of dimethylformamide
(§2) Emulsifier: 1 part by weight of alkylaryl polyglycol ether
(§3) To produce a suitable preparation of active compound, 1 part by weight of active compound is mixed with the stated amount of solvent and the stated amount of emulsifier, and the concentrate is diluted with water to the desired concentration.
Bean plants (Phaseolus vulgaris), which are heavily infested by all stages of the greenhouse spider mite (Tetranychus urticae) are dipped into a preparation of active compound of the desired concentration.
After the desired period of time, the activity in % is determined. 100% means that all spider mites have been killed, 0% means that none of the spider mites have been killed.

[2] = system: larvae of the green rice leaf hoppers (Nepliotettix cincticeps); assay: Nephotettix-Test (rice seedlings dipped); assay type: in vivo, Nephotettix cincticeps; conditions: active compound concentration of 0.1%, after 6 days
Method: Solvent: 7 parts by weight dimethylformamide
as §2, §3
Rice seedlings (Oryza sativa) are treated by being dipped into the preparation of active compound of the desired concentration and populated with larvae of the green rice leaf hoppers (Nepliotettix cincticeps) while the seedlings are still moist.
After the desired period of time, the kill in % is determined. 100% means that all leaf hoppers have been killed, 0% means that none of the leaf hoppers have been killed.

[3] = system: Lucilia cuprina-Larvae; assay: Blowfly-Larvae-Test/Development-inhibitory Action; assay type: in vivo; conditions: active compound concentration of 1000 ppm, read-out: activity (inhibition of fly emergence)
Method: Blowfly-Larvae-Test/Development-inhibitory Action
Test animals: Lucilia cuprina-Larvae
Solvent: dimethyl sulphoxide
20 mg of active compound are dissolved in 1 ml of dimethyl sulphoxide, more dilute concentrations are prepared by dilution with distilled H2O.
Approximately 20 Lucilia cuprina larvae are introduced into a test tube which contains approximately 1 cm^3 of horse meat and 0.5 ml of the preparation of active compound to be tested. After 24 and 48 hours, the efficacy of the preparation of active compound is determined. The test tubes are transferred into beakers whose bottom is covered with sand. After a further 2 days, the test tubes are removed, and the pupae are counted.
The activity of the preparation of active compound is assessed by the number of flies which have emerged after 1.5 times the development time of an untreated control. 100% means that no flies have emerged; 0% means that all the flies have emerged normally.

[4] = system: peach affids (Myzus persicae); assay: Myzus-Test (cabbage leaves dipped); assay type: in vivo; conditions: active compound concentration of 0.1%, after 6 days
Method: (§4) Solvent: 7 parts by weight of dimethylformamide
as §2, §3
Cabbage leaves (Brassica oleracea), which are heavily infested by peach affids (Myzus persicae) are treated by being dipped into the preparation of active compound of the desired concentration.
After the desired period of time, the kill in per cent is determined. 100% means that all affids have been killed; 0% means that none of the affids have been killed.

[5] = system: larvae of the mustard beetle (Phaedon cochleariae); assay: Phaedon-Larvae-Test (cabbage leaves dipped); assay type: in vivo; conditions: active compound concentration of 0.1%, after 7 days
Method: as §4, §2, §3
After the desired period of time, the kill in % was determined. 100% means that all beetle larvae have been killed, 0% means that none of the beetle larvae have been killed.

[6] = system: fruit tree red spider mite (Panonychus ulmi); assay: Panonychus-Test (plum trees sprayed); assay type: in vivo; conditions: active compound concentration of 0.02%, after 7 days
Method: as §1, §2
To produce a suitable preparation of active compound, 1 part by weight of active compound is mixed with the stated amount of solvent and the stated amount of emulsifier, and the concentrate is diluted with emulsifier-containing water to the desired concentration.
Plum trees (Prunus domestica), of a height of approximately 30 cm which are heavily infested by all development stages of the fruit tree red spider mite (Panonychus ulmi) are sprayed with a preparation of active compound of the desired concentration.
After the desired period of time, the effect in % is determined. 100% means that all spider mites have been killed, 0% means that none of the spider mites have been killed.

[7] = system: caterpillars of the owlet moth (Spodoptera frugiperda); assay: Spodoptera Frugiperda-Test (cabbage leaves dipped); assay type: in vivo; conditions: active compound concentration of 0.1%, after 7 days
Method: Spodoptera Frugiperda-Test
as §4, §2, §3
Cabbage leaves (Brassica oleracea) are treated by being dipped into the preparation of active compound of the desired concentration and populated with caterpillars of the owlet moth (Spodoptera frugiperda) while the leaves are still moist.
After the desired period of time, the kill in % is determined. 100%, means that all caterpillars have been killed; 0% means that none of the caterpillars have been killed.

CON=C1CCC2(CC1)OC(=O)C(c1c(C)cc(C)cc1C)=C2O (centres unmarked) [Example I-2-a-2]
100%: kill [1] | kill [2]

CON=C1CCC2(CC1)OC(=O)C(c1c(C)cc(C)cc1C)=C2OC(=O)C(C)(C)C (centres unmarked) [Example I-2-b-2]
100%: inhibition at 1000 ppm [3] | kill [4] | kill [5] | effect (spider mites killed) [6] | kill [1] | kill [7]
